Assay results published in patent publication US20200085791A1, “[(PHENYLSULFONYL)OCTAHYDRO-EPIMINOISOINDOL-YL](1H-1,2,3-TRIAZOL-5-YL)METHANONES” (Bayer Pharma Aktiengesellschaft, priority 2016, published 2020).

Molecular target: T1, recombinant human AKR1C3 (Aldo-keto reductase family 1 member C3) (Homo sapiens, UniProt P42330)
T1 construct: GST (cleaved yes); made in house; host or cells: E. coli
T1 sequence (P42330 1-323): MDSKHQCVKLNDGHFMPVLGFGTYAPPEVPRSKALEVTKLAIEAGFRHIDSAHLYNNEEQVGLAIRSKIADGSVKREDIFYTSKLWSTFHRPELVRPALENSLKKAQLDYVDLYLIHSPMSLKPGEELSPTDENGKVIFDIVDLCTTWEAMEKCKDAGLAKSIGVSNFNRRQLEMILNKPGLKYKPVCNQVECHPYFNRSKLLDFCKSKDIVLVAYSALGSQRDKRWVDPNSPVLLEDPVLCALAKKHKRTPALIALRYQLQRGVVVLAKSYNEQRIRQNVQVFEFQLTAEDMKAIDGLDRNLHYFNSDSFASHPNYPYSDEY
Experiment: In Vitro Assay 1: AKR1C3-inhibitory activity (Coumberone to Coumberol fluorescence assay)
Type: biochemical
Conditions: recombinant enzyme, Coumberone 0.3 μM, NADPH 10 μM, 15 min pre-incubation, 4-parameter fit; average or median values
Experimental: In Vitro Assay 1: AKR1C3-Inhibitory Activity
The AKR1C3-inhibitory activity of the substances of the present invention was measured in the AKR1C3 assay described in the paragraphs below.
Essentially, the enzyme activity is measured by quantification of the Coumberol from Coumberone (Halim, M., Yee, D. J., and Sames, D., J. AM. CHEM. SOC. 130, 14123-14128 (2008) and Yee, D. J., Balsanek, V., Bauman, D. R., Penning, T. M., and Sames, D., Proc. Natl. Acad. Sci. USA 103, 13304-13309 (2006)). In this test, the increase of the highly fluorescent Coumberol by NADPH- (nicotinamide adenine dinucleotide phosphate)-dependent reduction of the non-fluorescent Coumberone by AKR1C3 can be determined.
The enzyme used was recombinant human AKR1C3 (Aldo-keto reductase family 1 member C3) (GenBank Accession No. NM_003739). This was expressed in E. coli as GST (glutathione S transferase) fusion protein and purified by glutathione Sepharose affinity chromatography. The GST was removed by digestion with thrombin and subsequent size exclusion chromatography (Dufort, I., Rheault, P., Huang, X F., Soucy, P., and Luu-The, V., Endocrinology 140, 568-574 (1999)).
For the assay, 50 nl of a 100-fold concentrated solution of the test substance in DMSO were pipetted into a black low-volume 384-well microtiter plate (Greiner Bio-One, Frickenhausen, Germany), 2.5 μl of a solution of AKR1C3 in assay buffer [50 mM potassium phosphate buffer pH 7, 1 mM DTT, 0.0022% (w/v) Pluronic F-127, 0.01% BSA (w/v) and protease inhibitor cocktail (Complete, EDTA-free Protease Inhibitor Cocktail from Roche)] were added and the mixture was incubated for 15 min to allow pre-binding of the substances to the enzyme prior to the enzyme reaction. The enzyme reaction was then started by addition of 2.5 μl of a solution of NADPH (20 μM→final concentration in 5 μl of assay volume is 10 μM) and Coumberone (0.6 μM→final concentration in 5 μl of assay volume is 0.3 μM) in assay buffer, and the resulting mixture was incubated at […] for the reaction time of typically 90 min. The concentration of the AKR1C3 and the reaction time was adapted to the respective activity of the enzyme preparation and adjusted such that the assay was carried out in the linear range.
Typical AKR1C3 concentrations were in the region of 1 nM. The reaction was stopped by addition of 2.5 μl of a stop solution consisting of the inhibitor EM-1404 [F. Labrie et al. U.S. Pat. No. 6,541,463, 2003] (3 μM→final concentration in 7.5 μl of assay volume is 1 μM). The fluorescence of the Coumberole was then measured at 520 nm (excitation at 380 nm) using a suitable measuring instrument (Pherastar from BMG Labtechnologies). The intensity of the fluorescence was used as a measure of the amount of Coumberole formed and thus of the enzyme activity of AKR1C3. The data were normalized (enzyme reaction without inhibitor—0% inhibition; all other assay components, but no enzyme=100% inhibition).

SMILES	IC50 [nM]
O=C(c1cnn[nH]1)N1C[C@@H]2[C@H](C1)[C@@H]1CC[C@H]2N1S(=O)(=O)c1ccccc1C(F)(F)F [Example 1, 1H-1,2,3-triazol-5-yl[(3aR,4S,7R,7aS)-8-{[2-(trifluoromethyl)phenyl]sulfonyl}octahydro-2H-4,7-epiminoisoindol-2-yl]methanone]	2
O=C(c1c[nH]nn1)N1C[C@@H]2[C@H](C1)[C@@H]1CC[C@H]2N1S(=O)(=O)c1cccc(C(F)(F)F)c1 [Example 2, 1H-1,2,3-triazol-4-yl[(3aR,4S,7R,7aS)-8-{[3-(trifluoromethyl)phenyl]sulfonyl}octahydro-2H-4,7-epiminoisoindol-2-yl]methanone]	61
O=C(c1c[nH]nn1)N1C[C@@H]2[C@H](C1)[C@@H]1CC[C@H]2N1S(=O)(=O)c1cccc(Cl)c1 [Example 3, {(3aR,4S,7R,7aS)-8-[(3-chlorophenyl)sulfonyl]octahydro-2H-4,7-epiminoisoindol-2-yl}(1H-1,2,3-triazol-4-yl)methanone]	20
O=C(c1c[nH]nn1)N1C[C@@H]2[C@H](C1)[C@@H]1CC[C@H]2N1S(=O)(=O)c1cc(Cl)cc(Cl)c1 [Example 4, {(3aR,4S,7R,7aS)-8-[(3,5-dichlorophenyl)sulfonyl]octahydro-2H-4,7-epiminoisoindol-2-yl}(1H-1,2,3-triazol-4-yl)methanone]	44
O=C(c1c[nH]nn1)N1C[C@@H]2[C@H](C1)[C@@H]1CC[C@H]2N1S(=O)(=O)c1cccc(F)c1 [Example 5, {(3aR,4S,7R,7aS)-8-[(3-fluorophenyl)sulfonyl]octahydro-2H-4,7-epiminoisoindol-2-yl}(1H-1,2,3-triazol-4-yl)methanone]	26
O=C(c1c[nH]nn1)N1C[C@@H]2[C@H](C1)[C@@H]1CC[C@H]2N1S(=O)(=O)c1cccc(Cl)c1F [Example 6, {(3aR,4S,7R,7aS)-8-[(3-chloro-2-fluorophenyl)sulfonyl]octahydro-2H-4,7-epiminoisoindol-2-yl}(1H-1,2,3-triazol-4-yl)methanone]	31
O=C(c1c[nH]nn1)N1C[C@@H]2[C@H](C1)[C@@H]1CC[C@H]2N1S(=O)(=O)c1cc(F)cc(F)c1 [Example 7, {(3aR,4S,7R,7aS)-8-[(3,5-difluorophenyl)sulfonyl]octahydro-2H-4,7-epiminoisoindol-2-yl}(1H-1,2,3-triazol-4-yl)methanone]	74
O=C(c1c[nH]nn1)N1C[C@@H]2[C@H](C1)[C@@H]1CC[C@H]2N1S(=O)(=O)c1ccccc1Cl [Example 8, {(3aR,4S,7R,7aS)-8-[(2-chorophenyl)sulfonyl]octahydro-2H-4,7-epiminoisoindol-2-yl}(1H-1,2,3-triazol-4-yl)methanone]	7
O=C(c1c[nH]nn1)N1[C@@H]2CC[C@H]1[C@H]1CN(S(=O)(=O)c3ccccc3Cl)C[C@H]12 [Example 9, {(3aR,4S,7R,7aS)-2-[(2-chlorophenyl)sulfonyl]octahydro-1H-4,7-epiminoisoindol-8-yl}(1H-1,2,3-triazol-4-yl)methanone]	4
O=C(c1c[nH]nn1)N1[C@@H]2CC[C@H]1[C@H]1CN(S(=O)(=O)c3cccc(S(F)(F)(F)(F)F)c3)C[C@H]12 [Example 10, [(3aR,4S,7R,7aS)-2-{[3-(pentafluoro-λ^6-sulfanyl)phenyl]sulfonyl}octahydro-1H-4,7-epiminoisoindol-8-yl](1H-1,2,3-triazol-4-yl)methanone]	121

Second part, the compound after the results:

IC50 [nM]	SMILES
69	O=C(c1c[nH]nn1)N1C[C@@H]2[C@H](C1)[C@@H]1CC[C@H]2N1S(=O)(=O)c1cccc(S(F)(F)(F)(F)F)c1 [Example 11, [(3aR,4S,7R,7aS)-8-{[3-(pentafluoro-λ^6-sulfanyl)phenyl]sulfonyl}octahydro-2H-4,7-epiminoisoindol-2-yl](1H-1,2,3-triazol-4-yl)methanone]
43	O=C(c1c[nH]nn1)N1C[C@@H]2[C@H](C1)[C@@H]1CC[C@H]2N1S(=O)(=O)c1c(F)cccc1F [Example 12, {(3aR,4S,7R,7aS)-8-[(2,6-difluorophenyl)sulfonyl]octahydro-2H-4,7-epiminoisoindol-2-yl}(1H-1,2,3-triazol-4-yl)methanone]
102	O=C(c1c[nH]nn1)N1C[C@@H]2[C@H](C1)[C@@H]1CC[C@H]2N1S(=O)(=O)c1ccc(F)cc1F [Example 13, {(3aR,4S,7R,7aS)-8-[(2,4-difluorophenyl)sulfonyl]octahydro-2H-4,7-epiminoisoindol-2-yl}(1H-1,2,3-triazol-4-yl)methanone]
24	O=C(c1c[nH]nn1)N1C[C@@H]2[C@H](C1)[C@@H]1CC[C@H]2N1S(=O)(=O)c1ccccc1F [Example 14, {(3aR,4S,7R,7aS)-8-[(2-fluorophenyl)sulfonyl]octahydro-2H-4,7-epiminoisoindol-2-yl}(1H-1,2,3-triazol-4-yl)methanone]
45	COc1ccccc1S(=O)(=O)N1[C@@H]2CC[C@H]1[C@H]1CN(C(=O)c3c[nH]nn3)C[C@H]12 [Example 15, {(3aR,4S,7R,7aS)-8-[(2-methoxyphenyl)sulfonyl]octahydro-2H-4,7-epiminoisoindol-2-yl}(1H-1,2,3-triazol-4-yl)methanone]
5	Cc1ccccc1S(=O)(=O)N1[C@@H]2CC[C@H]1[C@H]1CN(C(=O)c3c[nH]nn3)C[C@H]12 [Example 16, {(3aR,4S,7R,7aS)-8-[(2-methylphenyl)sulfonyl]octahydro-2H-4,7-epiminoisoindol-2-yl}(1H-1,2,3-triazol-4-yl)methanone]
51	O=C(c1c[nH]nn1)N1C[C@@H]2[C@H](C1)[C@@H]1CC[C@H]2N1S(=O)(=O)c1cccc(Cl)c1C(F)(F)F [Example 17, [(3aR,4S,7R,7aS)-8-{[3-chloro-2-(trifluoromethyl)phenyl]sulfonyl}octahydro-2H-4,7-epiminoisoindol-2-yl](1H-1,2,3-triazol-4-yl)methanone]
19	O=C(c1c[nH]nn1)N1C[C@@H]2[C@H](C1)[C@@H]1CC[C@H]2N1S(=O)(=O)c1cc(F)ccc1F [Example 18, {(3aR,4S,7R,7aS)-8-[(2,5-difluorophenyl)sulfonyl]octahydro-2H-4,7-epiminoisoindol-2-yl}(1H-1,2,3-triazol-4-yl)methanone]
45	O=C(c1cnn[nH]1)N1C[C@@H]2[C@H](C1)[C@H]1CC[C@@H]2N1S(=O)(=O)c1ccccc1 [Example 20, [(3aR,4R,7S,7aS)-8-(phenylsulfonyl)octahydro-2H-4,7-epiminoisoindol-2-yl](1H-1,2,3-triazol-5-yl)methanone]
327	Cc1ccc(S(=O)(=O)N2[C@@H]3CC[C@H]2[C@H]2CN(C(=O)c4cnn[nH]4)C[C@H]23)cc1 [Example 21, {(3aR,4S,7R,7aS)-8-[(4-methylphenyl)sulfonyl]octahydro-2H-4,7-epiminoisoindol-2-yl}(1H-1,2,3-triazol-5-yl)methanone]
113	O=C(c1cnn[nH]1)N1C[C@@H]2[C@H](C1)[C@@H]1CC[C@H]2N1S(=O)(=O)c1ccc(F)cc1 [Example 22, {(3aR,4S,7R,7aS)-8-[(4-fluorophenyl)sulfonyl]octahydro-2H-4,7-epiminoisoindol-2-yl}(1H-1,2,3-triazol-5-yl)methanone]
